The values that follow come from US9023865B2, “Compounds that are ERK inhibitors” (Merck Sharp & Dohme Corp., priority 2011, dated 2015).

Chain of Active Human ERK2 (hERK2) (P28482 whole entry): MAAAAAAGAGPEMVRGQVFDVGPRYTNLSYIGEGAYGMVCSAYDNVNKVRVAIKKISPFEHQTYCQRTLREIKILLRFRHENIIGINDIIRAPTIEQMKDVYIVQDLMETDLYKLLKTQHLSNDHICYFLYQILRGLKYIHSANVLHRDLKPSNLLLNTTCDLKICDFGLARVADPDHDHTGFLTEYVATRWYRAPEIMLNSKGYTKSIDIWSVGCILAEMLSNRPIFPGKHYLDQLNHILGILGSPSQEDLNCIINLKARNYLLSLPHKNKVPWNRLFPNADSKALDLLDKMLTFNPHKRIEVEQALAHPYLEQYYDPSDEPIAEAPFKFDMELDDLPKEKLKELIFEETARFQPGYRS

The target in this assay is Active Human ERK2 (hERK2) (Homo sapiens (Human), UniProt P28482). Nature of the assay: Active Human ERK2 (hERK2) Activity Assay (IMAP-FP). The assay is classed as biochemical. As to conditions: phosphorylated active hERK2, 30 μM ATP; average; read-out: ERK 2 Human average IC50. An outline of the steps:
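Reaction contains 0.5 nM activated hERK2, 900 nM unlabeled plus 80 nM labeled peptide and 30 μM ATP, run 60 min. Quenched with IMAP binding beads in buffer with 24 mM NaCl; fluorescence polarization read after 60 min binding equilibration.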
For the molecule `Cc1ccc(C2(NC(=O)Nc3cc4[nH]nc(-c5ccnc(C)c5)c4cn3)CC2)cc1` [Example 342], the IC50 worked out at 40.9 nM.

As to `Cc1cc(-c2n[nH]c3cc(NC(=O)NC4(c5ccc(F)cc5)CC4)ncc23)ccn1` [Example 343], the IC50 came to 18.7 nM.

With `CCC(NC(=O)Nc1cc2[nH]nc(-c3ccnc(C)c3)c2cn1)c1ccc(Cl)cc1` (stereo not shown) [Example 344], the IC50 was 3.15 nM.

Take `Cc1cc(-c2n[nH]c3cc(NC(=O)N[C@@H](C)c4ccccn4)ncc23)ccn1` [Example 345]: the IC50 stood at 5.37 nM. On to `Cc1cc(-c2n[nH]c3cc(NC(=O)N[C@H](CO)c4ccc(F)cc4)ncc23)ccn1` [Example 346], for which the IC50 was determined as 88.2 nM. For `CCC(NC(=O)Nc1cc2[nH]nc(-c3ccnc(C)c3)c2cn1)c1ccccn1` (stereo not shown) [Example 347], the IC50 is 1.34 nM. Turning to `COCC(NC(=O)Nc1cc2[nH]nc(-c3ccnc(C)c3)c2cn1)c1ccccn1` (stereo not shown) [Example 348], the IC50 was 2.16 nM.

As for `Cc1cc(-c2n[nH]c3cc(NC(=O)NC(C)c4ncccc4C)ncc23)ccn1` (stereo not shown) [Example 349], the IC50 stood at 6.57 nM. In the case of `Cc1cc(-c2n[nH]c3cc(NC(=O)NC4(c5ccccc5)CC4)ncc23)ccn1` [Example 350] it was 10.6 nM; in that of `Cc1cc(-c2n[nH]c3cc(NC(=O)NC4(c5ccccn5)CC4)ncc23)ccn1` [Example 351], 91.9 nM. As to `Cc1cc(-c2n[nH]c3cc(NC(=O)NC4(c5ccncc5)CCC4)ncc23)ccn1` [Example 352], the IC50 worked out at 30.2 nM. With `Cc1cc(-c2n[nH]c3cc(NC(=O)NC(CCN(C)C)c4ccccn4)ncc23)ccn1` (stereo not shown) [Example 353], the IC50 is 1.56 nM. Consider `Cc1cc(-c2n[nH]c3cc(NC(=O)NC(CF)c4ccccc4)ncc23)ccn1` (stereo not shown) [Example 354], for which the IC50 worked out at 0.474 nM. Regarding `Cc1cc(-c2n[nH]c3cc(NC(=O)NC4(c5ccccn5)CCC4)ncc23)ccn1` [Example 355], the IC50 was 1.54 nM.

As to `Cc1cc(-c2n[nH]c3cc(NC(=O)NC4(c5ccncc5)CC4)ncc23)ccn1` [Example 356], the IC50 is 130 nM. Regarding `Cc1cc(-c2n[nH]c3cc(NC(=O)NC(C)(C)c4ccccn4)ncc23)ccn1` [Example 357], the IC50 was found to be 106 nM. For `Cc1cc(-c2n[nH]c3cc(NC(=O)NC4(c5ccccn5)CCCC4)ncc23)ccn1` [Example 358] the value was 137 nM. In the case of `COc1ccc(C2(NC(=O)Nc3cc4[nH]nc(-c5ccnc(C)c5)c4cn3)CC2)cc1` [Example 359] it was 9.27 nM; in that of `Cc1cc(-c2n[nH]c3cc(NC(=O)Nc4noc5cnccc45)ncc23)ccn1` [Example 360], 0.378 nM; in that of `Cc1cc(-c2n[nH]c3cc(NC(=O)NC(CN)c4ccccc4)ncc23)ccn1` (stereo not shown) [Example 361], 0.232 nM. For `Cc1cc(-c2n[nH]c3cc(NC(=O)N[C@H](CO)c4cccc5cc[nH]c45)ncc23)ccn1` [Example 362], the IC50 is 0.288 nM. In the case of `Cc1cc(-c2n[nH]c3cc(NC(=O)N[C@@H](CO)c4cccc5cc[nH]c45)ncc23)ccn1` [Example 363] it was 25.9 nM.

On to `Cc1cc(-c2n[nH]c3cc(NC(=O)NC(C)c4ccc(F)cn4)ncc23)ccn1` (stereo not shown) [Example 364], for which the IC50 amounted to 1.66 nM. In the case of `Cc1cc(-c2n[nH]c3cc(NC(=O)NC(CO)c4cc(F)cc(F)c4)ncc23)ccn1` (stereo not shown) [Example 365] it was 0.603 nM.

For the molecule `Cc1cc(-c2n[nH]c3cc(NC(=O)NCc4cccc(NS(C)(=O)=O)c4)ncc23)ccn1` [Example 366], the IC50 turned out to be 0.34 nM.

On to `Cc1cc(-c2n[nH]c3cc(NC(=O)N[C@@H]4[C@H](CO)[C@H]5CC[C@@H]4O5)ncc23)ccn1` [Example 367], for which the IC50 came out at 4.51 nM. In the case of `Cc1cc(-c2n[nH]c3cc(NC(=O)NCc4ccc5[nH]cnc5c4)ncc23)ccn1` [Example 368] it was 2.79 nM. For `Cc1cc(-c2n[nH]c3cc(NC(=O)NCc4ccc5c(c4)CNC5=O)ncc23)ccn1` [Example 369], the IC50 amounted to 1.41 nM. For `Cc1cc(-c2n[nH]c3cc(NC(=O)NCC4CC(C)(C)OC(C)(C)C4)ncc23)ccn1` [Example 370] the value was 1.45 nM; for `Cc1cc(-c2n[nH]c3cc(NC(=O)NCc4ccc(-c5ncc[nH]5)cc4)ncc23)ccn1` [Example 371], 59 nM.

As for `Cc1cc(-c2n[nH]c3cc(NC(=O)NCc4cccc(-c5ncc[nH]5)c4)ncc23)ccn1` [Example 372], the IC50 came to 1.33 nM.

On to `Cc1cc(-c2n[nH]c3cc(NC(=O)NCCC4COc5ccccc5O4)ncc23)ccn1` (stereo not shown) [Example 373], for which the IC50 amounted to 1.07 nM. For `Cc1cc(-c2n[nH]c3cc(NC(=O)N[C@H]4CN[C@H](c5ccccc5)C4)ncc23)ccn1` [Example 374] the value was 351 nM; for `Cc1cc(-c2n[nH]c3cc(NC(=O)NC(C)c4ccc(-n5cncn5)cc4)ncc23)ccn1` (stereo not shown) [Example 375], 12.8 nM. For `Cc1cc(-c2n[nH]c3cc(NC(=O)NC(C)c4ccc(S(C)(=O)=O)cc4)ncc23)ccn1` (stereo not shown) [Example 376] the value was 0.582 nM; for `Cc1cc(-c2n[nH]c3cc(NC(=O)NCCc4nc5ccccc5[nH]4)ncc23)ccn1` [Example 377], 0.478 nM. Regarding `Cc1cc(-c2n[nH]c3cc(NC(=O)NC(CCN4CCCC4)c4ccncc4)ncc23)ccn1` (stereo not shown) [Example 378], the IC50 was determined as 55.6 nM. With `Cc1cc(-c2n[nH]c3cc(NC(=O)NC(c4ccccc4)C(F)F)ncc23)ccn1` (stereo not shown) [Example 379], the IC50 amounted to 1.51 nM. For `Cc1cc(-c2n[nH]c3cc(NC(=O)NC4CCCC(O)C4)ncc23)ccn1` (stereo not shown) [Example 380] the value was 6.18 nM; for `CC(=O)OC1CCCC(NC(=O)Nc2cc3[nH]nc(-c4ccnc(C)c4)c3cn2)C1` (stereo not shown) [Example 381], 6.71 nM. For `Cc1cc(-c2n[nH]c3cc(NC(=O)NCCc4nc5ccccc5n4C)ncc23)ccn1` [Example 382] the value was 6.26 nM; for `Cc1cc(-c2n[nH]c3cc(NC(=O)N[C@H]4CCCC(F)(F)[C@@H]4O)ncc23)ccn1` [Example 383], 13.3 nM. For `Cc1cc(-c2n[nH]c3cc(NC(=O)NCC(c4ccccn4)N4CCOCC4)ncc23)ccn1` (stereo not shown) [Example 384] the value was 24.7 nM. As to `Cc1cc(-c2n[nH]c3cc(NC(=O)NCC(c4ccccc4)C4(O)CCOCC4)ncc23)ccn1` (stereo not shown) [Example 385], the IC50 is 0.939 nM. On to `Cc1cc(-c2n[nH]c3cc(NC(=O)NCC(c4ccccc4)N4CCCCC4)ncc23)ccn1` (stereo not shown) [Example 386], for which the IC50 came to 4.94 nM. For `Cc1cc(-c2n[nH]c3cc(NC(=O)NCCC4CCOC4)ncc23)ccn1` (stereo not shown) [Example 387] the value was 4.42 nM; for `Cc1cc(-c2n[nH]c3cc(NC(=O)NCC4(O)CCN(C)CC4)ncc23)ccn1` [Example 388], 6.66 nM.

For `Cc1cc(-c2n[nH]c3cc(NC(=O)NCC(O)C4CCCCC4)ncc23)ccn1` (stereo not shown) [Example 389], the IC50 was found to be 4.11 nM. In the case of `Cc1cc(-c2n[nH]c3cc(NC(=O)NCc4nccc5ccccc45)ncc23)ccn1` [Example 390] it was 2.76 nM; in that of `Cc1ccc2nc(CNC(=O)Nc3cc4[nH]nc(-c5ccnc(C)c5)c4cn3)cn2c1` [Example 391], 22.2 nM; in that of `Cc1cc(-c2n[nH]c3cc(NC(=O)NCc4cn5c(C)cccc5n4)ncc23)ccn1` [Example 392], 22.6 nM.

In the case of `Cc1cc(-c2n[nH]c3cc(NC(=O)NCc4cn5cccc(C)c5n4)ncc23)ccn1` [Example 393], the IC50 stood at 13.8 nM. `Cc1cc(-c2n[nH]c3cc(NC(=O)NCCc4cn[nH]c4)ncc23)ccn1` [Example 394]: the half-inhibitory concentration (IC50) came to 0.85 nM. Consider `Cc1cc(-c2n[nH]c3cc(NC(=O)NCc4cc5ccccc5cn4)ncc23)ccn1` [Example 395], for which the IC50 was determined as 7.66 nM. In the case of `Cc1cc(-c2n[nH]c3cc(NC(=O)NC4CC(=O)Nc5ccc(F)cc54)ncc23)ccn1` (stereo not shown) [Example 396] it was 8.46 nM; in that of `Cc1cc(-c2n[nH]c3cc(NC(=O)NCc4nnc(-c5ccccc5)[nH]4)ncc23)ccn1` [Example 397], 48.1 nM. For `Cc1cc(-c2n[nH]c3cc(NC(=O)NCC4(Nc5ccccc5)CCOCC4)ncc23)ccn1` [Example 398], the concentration for half-maximal inhibition (IC50) is 1.13 nM.

On to `Cc1cc(-c2n[nH]c3cc(NC(=O)NCCC(=O)Nc4ccccc4Br)ncc23)ccn1` [Example 399], for which the IC50 is 2.06 nM.

Take `Cc1cc(-c2n[nH]c3cc(NC(=O)NC4CCc5ccncc5C4)ncc23)ccn1` (stereo not shown) [Example 400]: the IC50 turned out to be 5.42 nM.

Regarding `Cc1cc(-c2n[nH]c3cc(NC(=O)NCCN4CCC(c5ccccc5)C4)ncc23)ccn1` (stereo not shown) [Example 401], the IC50 worked out at 20 nM. As for `CCC(C)C(NC(=O)Nc1cc2[nH]nc(-c3ccnc(C)c3)c2cn1)c1ccc(Cl)cc1` (stereo not shown) [Example 404], the IC50 is 11.1 nM. In the case of `Cc1cc(-c2n[nH]c3cc(NC(=O)N[C@@H]4CN[C@H](c5ccccc5)C4)ncc23)ccn1` [Example 405] it was 14.2 nM; in that of `CCN(CC)CCC(NC(=O)Nc1cc2[nH]nc(-c3ccnc(C)c3)c2cn1)c1ccccc1` (stereo not shown) [Example 406], 1.06 nM; in that of `Cc1cc(-c2n[nH]c3cc(NC(=O)NC4CC(=O)Nc5ccccc54)ncc23)ccn1` (stereo not shown) [Example 407], 5.72 nM.

As for `Cc1cc(-c2n[nH]c3cc(NC(=O)NCc4nc5ccccc5[nH]4)ncc23)ccn1` [Example 408], the IC50 worked out at 2 nM. In the case of `Cc1cc(-c2n[nH]c3cc(NC(=O)NCC4CNC(c5ccccc5)C4)ncc23)ccn1` (stereo not shown) [Example 409], the IC50 was 5.69 nM. For the molecule `Cc1cc(-c2n[nH]c3cc(NC(=O)NCC4CCN(Cc5ccccc5)C4)ncc23)ccn1` (stereo not shown) [Example 410], the IC50 is 2.65 nM. In the case of `Cc1cc(-c2n[nH]c3cc(NC(=O)N[C@@H](C)c4ccc(F)c(F)c4)ncc23)ccn1` [Example 411] it was 34.1 nM; in that of `Cc1cc(-c2n[nH]c3cc(NC(=O)N[C@H](C)c4ccc(F)c(F)c4)ncc23)ccn1` [Example 412], 0.303 nM. In the case of `CC[C@H](NC(=O)Nc1cc2[nH]nc(-c3ccnc(C)c3)c2cn1)c1ccc(Cl)cc1` [Example 413] it was 39.2 nM.

As usually defined, the IC50 is the concentration that inhibits the measured activity by half.
